The values that follow come from ChEMBL document CHEMBL2385021, “Discovery of MK-3168: A PET Tracer for Imaging Brain Fatty Acid Amide Hydrolase” (ACS Med Chem Lett, 2013).

A short description of data set [1]: Lipophilicity, log D of the compound at pH 7.3 by HPLC analysis. It counts as physicochemical. Particulars: buffer; call rule not given here.
In data set [2] the target is T1, Fatty-acid amide hydrolase 1 (Rattus norvegicus, UniProt P97612).
T1 sequence (P97612 whole entry): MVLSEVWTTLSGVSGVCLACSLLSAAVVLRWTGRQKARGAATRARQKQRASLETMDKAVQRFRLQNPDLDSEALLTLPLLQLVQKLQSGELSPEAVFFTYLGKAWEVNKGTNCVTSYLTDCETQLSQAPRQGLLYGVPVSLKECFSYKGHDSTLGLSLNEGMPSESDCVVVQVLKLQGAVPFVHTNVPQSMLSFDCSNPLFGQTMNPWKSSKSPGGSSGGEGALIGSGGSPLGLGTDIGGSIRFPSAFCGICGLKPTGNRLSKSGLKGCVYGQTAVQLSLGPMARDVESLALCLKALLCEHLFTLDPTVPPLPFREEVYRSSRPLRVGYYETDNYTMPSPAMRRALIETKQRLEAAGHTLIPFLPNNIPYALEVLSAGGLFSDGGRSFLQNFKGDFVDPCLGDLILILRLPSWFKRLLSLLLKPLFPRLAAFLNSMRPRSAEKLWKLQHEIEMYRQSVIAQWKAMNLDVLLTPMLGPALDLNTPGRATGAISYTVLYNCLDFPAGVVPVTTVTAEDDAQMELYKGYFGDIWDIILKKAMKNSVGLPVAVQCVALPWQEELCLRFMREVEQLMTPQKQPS
The data set is described as follows: Inhibition of rat FAAH expressed in CHO cell lysates assessed as arachidonyl-7-amino-4-methylcoumarin amide hydrolysis to 7-amino 4-methyl coumarin preincubated for 15 mins prior to substrate addition measured after 1 to 3 hrs by fluorescence assay. It counts as cell-free.

Data set [3] concerns the target T2, Fatty-acid amide hydrolase 1 (Homo sapiens, UniProt O00519).
T2 sequence (O00519 whole entry): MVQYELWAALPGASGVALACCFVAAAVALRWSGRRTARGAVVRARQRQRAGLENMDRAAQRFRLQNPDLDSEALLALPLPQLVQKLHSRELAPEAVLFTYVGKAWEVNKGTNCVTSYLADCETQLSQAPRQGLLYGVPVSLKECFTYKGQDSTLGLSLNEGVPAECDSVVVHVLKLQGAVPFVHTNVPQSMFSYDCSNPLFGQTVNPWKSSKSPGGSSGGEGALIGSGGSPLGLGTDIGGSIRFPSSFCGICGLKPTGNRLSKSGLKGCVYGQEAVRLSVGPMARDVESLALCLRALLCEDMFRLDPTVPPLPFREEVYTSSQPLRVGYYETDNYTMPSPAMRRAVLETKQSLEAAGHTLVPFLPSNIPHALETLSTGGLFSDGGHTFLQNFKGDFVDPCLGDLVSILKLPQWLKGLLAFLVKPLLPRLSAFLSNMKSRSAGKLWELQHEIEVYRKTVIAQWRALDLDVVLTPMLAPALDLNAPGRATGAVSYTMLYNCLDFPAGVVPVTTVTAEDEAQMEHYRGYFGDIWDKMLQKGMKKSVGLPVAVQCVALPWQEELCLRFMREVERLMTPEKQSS
The data set is described as follows: Inhibition of human FAAH expressed in CHO cell lysates assessed as arachidonyl-7-amino-4-methylcoumarin amide hydrolysis to 7-amino 4-methyl coumarin preincubated for 15 mins prior to substrate addition measured after 1 to 3 hrs by fluorescence assay. It counts as cell-free.

Data set [4] deals with T2, Fatty-acid amide hydrolase 1. The data set is described as follows: (§1) Binding affinity to FAAH in human cortical homogenates.
The nature of data set [5]: (§2) Binding affinity to FAAH in rhesus monkey cortical homogenates. The data set is classed as tissue-based, Macaca mulatta.
For data set [6], the target named is T1, Fatty-acid amide hydrolase 1. The data set is described as follows: Binding affinity to FAAH in rat cortical homogenates.
Data set [7] can be described thus: Inhibition of rhesus monkey FAAH expressed in CHO cell lysates assessed as arachidonyl-7-amino-4-methylcoumarin amide hydrolysis to 7-amino 4-methyl coumarin preincubated for 15 mins prior to substrate addition measured after 1 to 3 hrs by fluorescence assay. The data set is classed as cell-free, Macaca mulatta.
Data set [8] is described as follows: Apparent permeability of the compound. It counts as ADME. As to conditions: not told.
The subject of data set [9] is Brain. The data set is described as follows: Drug uptake in iv dosed rhesus monkey brain after 45 mins measured per mCi/kg by positron emission tomographic analysis. Particulars: in vivo, 0.75 h. It counts as ADME, organism-based, Macaca mulatta.
The test system of data set [10] is Hippocampus. Description: Drug uptake in rhesus monkey hippocampal regions at 5 mCi, iv after 45 mins by positron emission tomographic analysis. It counts as ADME, organism-based, Macaca mulatta. Particulars: in vivo, 0.75 h.
The test system of data set [11] is Striatum. Description: Drug uptake in rhesus monkey striatum at 5 mCi, iv after 45 mins by positron emission tomographic analysis. It counts as ADME, organism-based, Macaca mulatta. As to conditions: in vivo, 0.75 h.
Data set [12] in a line: Drug uptake in rhesus monkey frontal cortex at 5 mCi, iv after 45 mins by positron emission tomographic analysis. Particulars: in vivo, 0.75 h. The data set is classed as ADME, organism-based, Macaca mulatta.
Data set [13] concerns the target T3, Fatty-acid amide hydrolase 1 (Homo sapiens) (UniProt O00519).
T3 sequence (whole entry): T2 sequence (O00519 whole entry)
The description is as §1. Particulars: tested as the 3H-labelled form.

Data set [14] is filed under the species Macaca mulatta. The description is as §2. Particulars: tested as the 3H-labelled form. It counts as tissue-based.
The nature of data set [15]: Ratio of drug level in brain to plasma in rat at 2 mg/kg, po after 2 hrs. Particulars: read-out: BPR. It counts as ADME, organism-based. Also noted: dose 2 mg/kg, route oral.
Data set [16] deals with Brain. Description: Drug uptake in rat brain at 2 mg/kg, po after 2 hrs. It counts as ADME, organism-based. Also noted: dose 2 mg/kg, route oral. As to conditions: in vivo.
Data set [17] can be described thus: Activity at human P-glycoprotein. The data set is classed as ADME.
Data set [18] is described as follows: Activity at rat P-glycoprotein. The data set is classed as ADME.
The target in data set [19] is Cannabinoid receptor 2 (Homo sapiens, UniProt P34972). The data set is described as follows: Inhibition of CB2 receptor (unknown origin).
Data set [20] concerns the target Cytochrome P450 3A4 (Homo sapiens, UniProt P08684). Description: Inhibition of CYP3A4 (unknown origin). It counts as ADME.
For data set [21], the target named is Cannabinoid receptor 1 (Homo sapiens, UniProt P21554). Description: Inhibition of CB1 receptor (unknown origin).
In data set [22] the target is Voltage-gated inwardly rectifying potassium channel KCNH2 (Homo sapiens, UniProt Q12809). Description: Inhibition of human ERG.
The nature of data set [23]: Inhibition of L-type calcium channel diltiazem binding site (unknown origin). Also on record: species or system Homo sapiens.
Data set [24] has as its target Phosphodiesterase 4 (Homo sapiens, UniProt P27815+Q08499+Q07343+Q08493). Description: Inhibition of phosphodiesterase PDE4 (unknown origin). The data set is classed as protein assay.
Data set [25] concerns the target Acetylcholinesterase (Homo sapiens, UniProt P22303). Description: Inhibition of acetyl cholinesterase (unknown origin).
For data set [26], the species on record is Macaca mulatta. Description: Inhibition of FAAH in rhesus monkey whole blood. It counts as tissue-based.
Data set [27] has as its target T3, Fatty-acid amide hydrolase 1 (Homo sapiens). Description: Inhibition of FAAH in human whole blood.
Data set [28] is described as follows: Solubility of the compound in saline buffer at pH 3 to 8 in presence of 10% ethanol. It counts as physicochemical.
Data set [29] in a line: Chemical stability of the compound. It counts as physicochemical.

Some results are limits rather than exact numbers.

Sequence of Cannabinoid receptor 2 (P34972 whole entry): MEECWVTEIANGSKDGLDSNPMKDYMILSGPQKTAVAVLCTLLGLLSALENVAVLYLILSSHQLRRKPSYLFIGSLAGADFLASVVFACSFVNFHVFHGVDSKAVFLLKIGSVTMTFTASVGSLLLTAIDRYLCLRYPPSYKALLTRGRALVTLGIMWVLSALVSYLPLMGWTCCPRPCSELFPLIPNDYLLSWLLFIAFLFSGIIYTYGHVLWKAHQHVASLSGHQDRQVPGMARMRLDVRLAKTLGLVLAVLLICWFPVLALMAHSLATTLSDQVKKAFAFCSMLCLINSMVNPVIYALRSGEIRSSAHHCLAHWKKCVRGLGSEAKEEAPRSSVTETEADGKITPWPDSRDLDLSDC
Sequence of Voltage-gated inwardly rectifying potassium channel KCNH2 (Q12809 whole entry): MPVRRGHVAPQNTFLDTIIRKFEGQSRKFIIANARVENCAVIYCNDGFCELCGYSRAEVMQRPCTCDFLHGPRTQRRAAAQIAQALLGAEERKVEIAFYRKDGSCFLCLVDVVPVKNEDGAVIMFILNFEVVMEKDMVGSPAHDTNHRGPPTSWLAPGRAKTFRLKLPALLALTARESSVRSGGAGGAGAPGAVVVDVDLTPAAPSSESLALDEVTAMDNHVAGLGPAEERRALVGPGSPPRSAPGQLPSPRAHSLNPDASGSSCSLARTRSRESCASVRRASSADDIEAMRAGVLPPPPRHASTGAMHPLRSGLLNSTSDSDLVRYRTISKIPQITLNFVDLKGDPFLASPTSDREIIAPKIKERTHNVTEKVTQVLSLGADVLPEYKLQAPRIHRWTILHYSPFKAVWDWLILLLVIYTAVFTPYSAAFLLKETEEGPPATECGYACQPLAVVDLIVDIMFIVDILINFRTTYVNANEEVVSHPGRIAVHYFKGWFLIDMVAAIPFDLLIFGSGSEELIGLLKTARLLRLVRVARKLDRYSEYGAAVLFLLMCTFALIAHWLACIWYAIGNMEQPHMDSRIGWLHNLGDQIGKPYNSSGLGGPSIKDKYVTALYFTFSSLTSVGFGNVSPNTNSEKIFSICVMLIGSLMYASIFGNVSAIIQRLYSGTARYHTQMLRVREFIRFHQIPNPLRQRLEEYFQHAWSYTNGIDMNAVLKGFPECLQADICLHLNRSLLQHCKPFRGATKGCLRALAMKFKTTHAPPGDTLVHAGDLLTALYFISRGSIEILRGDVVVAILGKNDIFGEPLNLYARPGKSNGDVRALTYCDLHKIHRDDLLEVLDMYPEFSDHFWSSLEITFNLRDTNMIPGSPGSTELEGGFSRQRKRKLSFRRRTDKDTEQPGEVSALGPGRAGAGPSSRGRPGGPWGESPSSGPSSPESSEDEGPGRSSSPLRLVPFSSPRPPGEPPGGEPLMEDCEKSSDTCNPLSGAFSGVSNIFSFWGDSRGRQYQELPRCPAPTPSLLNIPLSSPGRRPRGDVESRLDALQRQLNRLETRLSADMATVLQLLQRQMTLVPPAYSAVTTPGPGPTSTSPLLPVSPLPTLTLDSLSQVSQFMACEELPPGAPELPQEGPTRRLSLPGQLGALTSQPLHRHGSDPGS
Sequence of Cytochrome P450 3A4 (P08684 whole entry): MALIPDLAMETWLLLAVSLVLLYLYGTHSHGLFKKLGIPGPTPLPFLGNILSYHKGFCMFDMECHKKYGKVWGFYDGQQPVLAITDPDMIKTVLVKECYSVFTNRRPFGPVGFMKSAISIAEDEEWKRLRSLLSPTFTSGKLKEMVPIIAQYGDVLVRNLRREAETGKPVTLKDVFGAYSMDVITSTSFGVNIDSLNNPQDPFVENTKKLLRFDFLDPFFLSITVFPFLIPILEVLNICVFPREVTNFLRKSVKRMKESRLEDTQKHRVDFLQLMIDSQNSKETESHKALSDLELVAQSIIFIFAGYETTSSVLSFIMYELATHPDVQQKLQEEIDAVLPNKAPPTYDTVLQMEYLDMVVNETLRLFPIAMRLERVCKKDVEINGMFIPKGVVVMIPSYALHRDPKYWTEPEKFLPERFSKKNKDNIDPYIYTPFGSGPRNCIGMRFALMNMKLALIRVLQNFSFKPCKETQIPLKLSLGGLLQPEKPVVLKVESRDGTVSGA
Sequence of Acetylcholinesterase (P22303 whole entry): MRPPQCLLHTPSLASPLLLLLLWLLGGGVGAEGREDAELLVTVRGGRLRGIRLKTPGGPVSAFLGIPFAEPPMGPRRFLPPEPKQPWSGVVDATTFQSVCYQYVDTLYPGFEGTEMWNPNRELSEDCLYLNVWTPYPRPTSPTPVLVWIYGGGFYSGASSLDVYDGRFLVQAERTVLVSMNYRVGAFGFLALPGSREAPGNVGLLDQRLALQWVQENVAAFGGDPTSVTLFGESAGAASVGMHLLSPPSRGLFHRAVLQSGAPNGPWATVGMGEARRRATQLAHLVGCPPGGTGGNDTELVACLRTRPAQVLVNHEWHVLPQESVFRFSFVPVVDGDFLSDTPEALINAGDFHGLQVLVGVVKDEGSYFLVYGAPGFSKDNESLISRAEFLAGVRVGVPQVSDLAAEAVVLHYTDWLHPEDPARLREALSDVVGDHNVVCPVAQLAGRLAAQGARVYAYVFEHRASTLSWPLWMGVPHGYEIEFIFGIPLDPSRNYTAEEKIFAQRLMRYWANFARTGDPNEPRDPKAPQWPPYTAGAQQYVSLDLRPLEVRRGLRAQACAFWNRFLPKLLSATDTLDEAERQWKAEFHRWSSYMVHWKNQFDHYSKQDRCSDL
Sequence of Cannabinoid receptor 1 (P21554 whole entry): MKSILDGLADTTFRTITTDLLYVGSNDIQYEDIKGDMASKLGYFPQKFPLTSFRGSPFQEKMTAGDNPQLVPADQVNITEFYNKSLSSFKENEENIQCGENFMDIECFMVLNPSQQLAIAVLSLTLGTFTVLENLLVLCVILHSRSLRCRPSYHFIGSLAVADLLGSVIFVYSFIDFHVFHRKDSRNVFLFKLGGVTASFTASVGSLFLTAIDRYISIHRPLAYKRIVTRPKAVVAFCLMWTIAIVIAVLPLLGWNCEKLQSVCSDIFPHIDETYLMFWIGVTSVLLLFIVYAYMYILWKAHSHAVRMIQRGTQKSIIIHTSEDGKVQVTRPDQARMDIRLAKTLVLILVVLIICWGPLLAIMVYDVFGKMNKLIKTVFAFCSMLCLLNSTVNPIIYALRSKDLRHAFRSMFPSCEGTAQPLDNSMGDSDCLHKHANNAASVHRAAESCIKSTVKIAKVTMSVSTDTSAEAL

As usually defined, the logD is lipophilicity at a set pH, counting ionised and neutral species. As usually defined, the IC50 is the concentration that inhibits the measured activity by half. The compound `CNC(=O)[C@H]1C[C@@H]1c1ccc(-c2ncn(C)c2Sc2ccc(Cl)cc2)cc1` returned a pH-dependent lipophilicity (logD) in [1] of 3.8. The results for the 50% inhibitory concentration (IC50) in [2] and in [3] were 1.4 nM and 0.5 nM, respectively.

One may read the Kd as the constant that tells how readily two partners part at equilibrium. Consider `[3H]C([3H])([3H])n1cnc(-c2ccc([C@H]3C[C@@H]3C(=O)N(C)C)cc2)c1Sc1ccc(Cl)cn1`, for which the figures for the Kd in [4], in [5] and in data set [6] were 0.8 nM, 1.4 nM and 0.6 nM, respectively.

Turning to `CN(C)C(=O)[C@H]1C[C@@H]1c1ccc(-c2c(Sc3ccc(Cl)cn3)ncn2C)cc1`, the results for the half-maximal inhibitory concentration (IC50) in [2] and in [3] were 1390 nM and 839 nM, respectively.

Turning to `CN(C)C(=O)[C@H]1C[C@@H]1c1ccc(-c2ncn(CCF)c2Sc2ccc(Cl)cn2)cc1`, the IC50 in data set [2] was 4.8 nM.

For the compound `Cn1cnc(-c2ccc([C@H]3C[C@@H]3C(N)=O)cc2)c1Sc1ccc(Cl)cn1`, in data set [1], the logD turned out to be 2. The IC50 in data set [2] came out at 12 nM.

In turn, `CNC(=O)[C@H]1C[C@@H]1c1ccc(-c2ncn(C)c2Sc2ccc(Cl)cn2)cc1` returned a logD in data set [1] of 2.9. Also, in data set [2], the IC50 was found to be 6 nM.

In data set [1], `Cn1cnc(-c2ccc([C@H]3C[C@@H]3C(=O)NCCF)cc2)c1Sc1ccc(Cl)cc1` gave a log distribution coefficient (logD) of 4. The half-maximal inhibitory concentration (IC50) in data set [2] was 1.4 nM; in [7], 3.1 nM; in data set [3] it was 1 nM.

In data set [1], `Cn1cnc(-c2ccc([C@H]3C[C@@H]3C(=O)NCCF)cc2)c1Sc1ccc(Cl)cn1` displayed a log distribution coefficient (logD) of 3. The figures for the half-maximal inhibitory concentration (IC50) in data set [2] and in data set [7] were 4.2 nM and 7 nM, respectively.

For `CN(CCF)C(=O)[C@H]1C[C@@H]1c1ccc(-c2ncn(C)c2Sc2ccc(Cl)cn2)cc1`, the log distribution coefficient (logD) in data set [1] worked out at 3.4. The half-maximal inhibitory concentration (IC50) in data set [2] was 3 nM; in data set [7], 27 nM.

Consider `CN(C)C(=O)[C@H]1C[C@@H]1c1ccc(-c2nc(C3CC3)n(C)c2Sc2ccc(Cl)cn2)cc1`, for which the half-inhibitory concentration (IC50) in [2] stood at 106 nM; in [3] it was 48 nM.

For `CN(C)C(=O)[C@H]1C[C@@H]1c1ccc(-c2nc[nH]c2Sc2ccc(Cl)cn2)cc1`, the IC50 in [2] was 145 nM.

In turn, `NC(=O)[C@H]1C[C@@H]1c1ccc(-c2nn(C3CC3)cc2Sc2ccc(Cl)cc2)cc1` had a logD in data set [1] of 3.8. The IC50 in data set [2] was found to be 4.2 nM; in [7], 33 nM; in data set [3], 5 nM.

The compound `CN(CCF)C(=O)[C@H]1C[C@@H]1c1ccc(-c2ncn(C)c2Sc2ccc(Cl)cc2)cc1` yielded a logD in [1] of 4.3. Besides, the figures for the IC50 in data set [2], in [7] and in [3] were 1.3 nM, 8.8 nM and 1.1 nM, respectively.

`Cn1cnc(-c2ccc([C@H]3C[C@@H]3C(N)=O)cc2)c1Sc1ccc(Cl)cc1` displayed a log distribution coefficient (logD) in [1] of 3.6. Further, the IC50 was found to be 1.7 nM in [2] and 0.8 nM in data set [3].

Take `CN(C)C(=O)[C@H]1C[C@@H]1c1ccc(-c2ncn(C)c2Sc2ccc(Cl)cc2)cc1`: the logD in data set [1] turned out to be 4.2. Moreover, the IC50 was 0.6 nM in data set [2] and 1.4 nM in data set [7].

The compound `[11CH3]n1cc(Sc2ccc(Cl)cc2)c(-c2ccc3ccc(C(N)=O)nc3c2)n1` showed a pH-dependent lipophilicity (logD) in data set [1] of 4.2. Moreover, the 50% inhibitory concentration (IC50) in data set [2] turned out to be 0.4 nM; in data set [7] it was 0.8 nM; in data set [3], 0.5 nM.

Usually Papp stands for the rate of passage across a membrane or cell layer, normalised by area and donor concentration. For the compound `CN(C)C(=O)[C@H]1C[C@@H]1c1ccc(-c2ncn([11CH3])c2Sc2ccc(Cl)cn2)cc1` [MK-3168 C-11], the Papp in data set [8] was found to be 27 ×10⁻⁶ cm/s. Moreover, the SUV in data set [9] was more than 1 nCi/cc. For the same compound, the Drug uptake result in data set [10], in data set [11] and in data set [12] was “Active” in each case.

As usually defined, the IC90 is the point of the concentration-response curve where the effect stands at 90%. Consider `CN(C)C(=O)[C@H]1C[C@@H]1c1ccc(-c2ncn(C)c2Sc2ccc(Cl)cn2)cc1` [MK-3168], for which the figures for the Bmax in data set [13] and in [14] were 15 nM and 21 nM, respectively. Moreover, the Kp at 2 h in data set [15] amounted to 7. Besides, the Drug uptake result in data set [16] is “Active”. Besides, the Activity result in data set [17] and in data set [18] was “Not Active” each time. The 50% inhibitory concentration (IC50) is 150000 nM in [19]; more than 50000 nM in data set [20]; 30000 nM in data set [21]; 37000 nM in [22]; 16000 nM in data set [23]; 9750 nM in data set [24]. In addition, the concentration for half-maximal inhibition (IC50) in data set [25] turned out to be 1630 nM; in [2], 1.7 nM; in data set [7], 5.5 nM. Moreover, the IC90 was found to be 29 nM in data set [26] and 5.5 nM in [27]. For the same compound, the logD in data set [1] is 3.3. For the same compound, the solubility entry in data set [28] is listed as “soluble”. In addition, the Stability in data set [29] was found to be 24 h.

Take `Cc1nc(-c2ccc([C@H]3C[C@@H]3C(=O)N(C)C)cc2)c(Sc2ccc(Cl)cn2)n1C`: the concentration for half-maximal inhibition (IC50) in data set [2] turned out to be 34 nM; in [3], 13.6 nM.
